According to paper PMC9322451 (Clinical Pharmacology in Drug Development, 2022):

Experiments:
CYP2E1 = test system: CYP2E1; set-up: method as in unpublished data; conditions: ref unpublished data; cited from earlier work
CYP2A6 = test system: CYP2A6; set-up: method as in unpublished data; conditions: ref unpublished data; cited from earlier work
P‐glycoprotein (P‐gp) = test system: P‐glycoprotein (P‐gp); set-up: method as in unpublished data; conditions: ref unpublished data; cited from earlier work
CYP2C19 = test system: CYP2C19; set-up: method as in unpublished data; conditions: ref unpublished data; cited from earlier work
[1] = test system: breast cancer resistance protein; set-up: method as in unpublished data; conditions: ref unpublished data, read-out: half maximal inhibitory concentration; cited from earlier work
neutrophil elastase = conditions: 10 and 25 mg, patients with non–cystic fibrosis bronchiectasis, WILLOW study; cited from earlier work
CYP2B6 = test system: CYP2B6; set-up: method as in unpublished data; conditions: ref unpublished data, read-out: half maximal inhibitory concentration; cited from earlier work
CYP2C8 = test system: CYP2C8; set-up: method as in unpublished data; conditions: ref unpublished data; cited from earlier work
[2] = set-up: method as in PMID 29484635; conditions: single 35‐mg dose following a high‐fat breakfast; cited from earlier work
[3] = set-up: method as in unpublished data; conditions: ref unpublished data; cited from earlier work
[4] = test system: organic anion transporting polypeptides; set-up: method as in unpublished data; conditions: ref unpublished data, read-out: half maximal inhibitory concentration; cited from earlier work
[5] = Phase 1 part A: safety (TEAEs); assay type: in vivo, human; conditions: for Any TEAE / Headache (TEAE) / Nasopharyngitis (TEAE) / SAE / Severe TEAE / Skin exfoliation (TEAE) / TEAE leading to death / TEAE leading to discontinuation: Part A
Protocol: The study was conducted sequentially in 2 parts. […] Eligible participants were admitted to the clinical unit for single‐dose evaluation from days −2 to 2 and from days 29 to 31 for steady‐state PK and safety evaluation. Participants self‐administered daily doses after an overnight fast of at least 10 hours on days 4 to 30, with outpatient visits on days 3, 4, 7, 14, 21, 32, 33, and 61 (Figure S1). […] Dosing of the 40‐mg group commenced when the safety of 25 mg was deemed acceptable by both the investigator and the sponsor's (Insmed Incorporated, Bridgewater, New Jersey) medical monitor.
Safety was assessed from the signing of informed consent until the end of study and included the following variables: treatment‐emergent adverse events (TEAEs), serious adverse events (SAEs), clinical laboratory tests (clinical chemistry, hematology, coagulation [part A only], and urinalysis), vital signs, 12‐lead ECG, primary Holter monitoring, and physical examinations (including evaluation of teeth and gingiva, and evaluation of palms and soles). Because of the mechanism of action of brensocatib, findings of hyperkeratosis, periodontitis/gingivitis, and other infections were reported as adverse events of special interest (AESIs). Renal function (part A only) was monitored by measuring serum creatinine and blood urea nitrogen, performing routine urinalysis, and measuring neutrophil gelatinase–associated lipocalin and cystatin.
Adverse events (AEs) observed before the first dosing were recorded as medical history. All medical history and AEs were coded using the Medical Dictionary for Regulatory Activities (version 21.1 or higher). A TEAE was defined as an AE that began or worsened in severity after at least 1 dose of study drug was administered. All AEs experienced by a participant were monitored until the event had resolved, any abnormal laboratory values returned to baseline or stabilized, a satisfactory explanation for the changes was identified, or the participant was lost to follow‐up.

CYP1A2 = test system: CYP1A2; set-up: method as in unpublished data; conditions: ref unpublished data; cited from earlier work
CYP2C9 = test system: CYP2C9; set-up: method as in unpublished data; conditions: ref unpublished data; cited from earlier work
[6] = test system: multidrug and toxin extrusion transporters; set-up: method as in unpublished data; conditions: ref unpublished data, read-out: half maximal inhibitory concentration; cited from earlier work
CYP3A4/5 = test system: CYP3A4/5; set-up: method as in unpublished data; conditions: ref unpublished data, read-out: half maximal inhibitory concentration; cited from earlier work
Caco‐2 monolayers = test system: Caco‐2 monolayers; set-up: method as in unpublished data; conditions: ref unpublished data; cited from earlier work
CYP3A4 = test system: CYP3A4; set-up: method as in unpublished data; conditions: ref unpublished data; cited from earlier work

Compound: Cn1c(=O)oc2ccc(-c3ccc(C[C@@H](C#N)NC(=O)[C@@H]4CNCCCO4)cc3)cc21 [Brensocatib]
- CYP inhibition (CYP2E1): no effect
- CYP inhibition (CYP2A6): no effect
- substrate status (P‐glycoprotein (P‐gp)): substrate
- CYP inhibition (CYP2C19): no effect
- IC50 [1]: > 11 µM
- effect on neutrophil elastase and clinical outcomes (neutrophil elastase): reduced neutrophil elastase and improved clinical outcomes
- IC50 (CYP2B6): > 30 µM
- CYP inhibition (CYP2C8): no effect
- Tmax [2]: 3.3 h
- decrease of AUC with food [2]: 9%
- decrease of Cmax with food [2]: 36%
- degradation in human intestinal microsomes and hepatocytes [3]: minimal degradation
- IC50 [4]: > 11 µM
- Any TEAE ([5]; 10 mg, Japanese (n=8)): 3 (37.5) n (%)
- Headache (TEAE) ([5]; 10 mg, Japanese (n=8)): 0 n (%)
- Nasopharyngitis (TEAE) ([5]; 10 mg, Japanese (n=8)): 0 n (%)
- SAE ([5]; 10 mg, Japanese (n=8)): 0 n (%)
- Severe TEAE ([5]; 10 mg, Japanese (n=8)): 0 n (%)
- Skin exfoliation (TEAE) ([5]; 10 mg, Japanese (n=8)): 1 (12.5) n (%)
- TEAE leading to death ([5]; 10 mg, Japanese (n=8)): 0 n (%)
- TEAE leading to discontinuation ([5]; 10 mg, Japanese (n=8)): 0 n (%)
- Any TEAE ([5]; 10 mg, White (n=8)): 6 (75.0) n (%)
- Headache (TEAE) ([5]; 10 mg, White (n=8)): 1 (12.5) n (%)
- Nasopharyngitis (TEAE) ([5]; 10 mg, White (n=8)): 2 (25.0) n (%)
- SAE ([5]; 10 mg, White (n=8)): 0 n (%)
- Severe TEAE ([5]; 10 mg, White (n=8)): 0 n (%)
- Skin exfoliation (TEAE) ([5]; 10 mg, White (n=8)): 0 n (%)
- TEAE leading to death ([5]; 10 mg, White (n=8)): 0 n (%)
- TEAE leading to discontinuation ([5]; 10 mg, White (n=8)): 0 n (%)
- Any TEAE ([5]; 25 mg, Japanese (n=9)): 5 (55.6) n (%)
- Headache (TEAE) ([5]; 25 mg, Japanese (n=9)): 3 (33.3) n (%)
- Nasopharyngitis (TEAE) ([5]; 25 mg, Japanese (n=9)): 0 n (%)
- SAE ([5]; 25 mg, Japanese (n=9)): 0 n (%)
- Severe TEAE ([5]; 25 mg, Japanese (n=9)): 0 n (%)
- Skin exfoliation (TEAE) ([5]; 25 mg, Japanese (n=9)): 2 (22.2) n (%)
- TEAE leading to death ([5]; 25 mg, Japanese (n=9)): 0 n (%)
- TEAE leading to discontinuation ([5]; 25 mg, Japanese (n=9)): 0 n (%)
- Any TEAE ([5]; 25 mg, White (n=8)): 5 (62.5) n (%)
- Headache (TEAE) ([5]; 25 mg, White (n=8)): 1 (12.5) n (%)
- Nasopharyngitis (TEAE) ([5]; 25 mg, White (n=8)): 0 n (%)
- SAE ([5]; 25 mg, White (n=8)): 0 n (%)
- Severe TEAE ([5]; 25 mg, White (n=8)): 0 n (%)
- Skin exfoliation (TEAE) ([5]; 25 mg, White (n=8)): 1 (12.5) n (%)
- TEAE leading to death ([5]; 25 mg, White (n=8)): 0 n (%)
- TEAE leading to discontinuation ([5]; 25 mg, White (n=8)): 0 n (%)
- Any TEAE ([5]; 40 mg, Japanese (n=8)): 3 (37.5) n (%)
- Headache (TEAE) ([5]; 40 mg, Japanese (n=8)): 0 n (%)
- Nasopharyngitis (TEAE) ([5]; 40 mg, Japanese (n=8)): 0 n (%)
- SAE ([5]; 40 mg, Japanese (n=8)): 0 n (%)
- Severe TEAE ([5]; 40 mg, Japanese (n=8)): 0 n (%)
- Skin exfoliation (TEAE) ([5]; 40 mg, Japanese (n=8)): 0 n (%)
- TEAE leading to death ([5]; 40 mg, Japanese (n=8)): 0 n (%)
- TEAE leading to discontinuation ([5]; 40 mg, Japanese (n=8)): 1 (12.5) n (%)
- Any TEAE ([5]; 40 mg, White (n=8)): 5 (62.5) n (%)
- Headache (TEAE) ([5]; 40 mg, White (n=8)): 2 (25.0) n (%)
- Nasopharyngitis (TEAE) ([5]; 40 mg, White (n=8)): 0 n (%)
- SAE ([5]; 40 mg, White (n=8)): 0 n (%)
- Severe TEAE ([5]; 40 mg, White (n=8)): 0 n (%)
- Skin exfoliation (TEAE) ([5]; 40 mg, White (n=8)): 1 (12.5) n (%)
- TEAE leading to death ([5]; 40 mg, White (n=8)): 0 n (%)
- TEAE leading to discontinuation ([5]; 40 mg, White (n=8)): 0 n (%)
- Any TEAE ([5]; pooled brensocatib (N=49)): 27 (55.1) n (%)
- Headache (TEAE) ([5]; pooled brensocatib (N=49)): 7 (14.3) n (%)
- Nasopharyngitis (TEAE) ([5]; pooled brensocatib (N=49)): 2 (4.1) n (%)
- SAE ([5]; pooled brensocatib (N=49)): 0 n (%)
- Severe TEAE ([5]; pooled brensocatib (N=49)): 0 n (%)
- Skin exfoliation (TEAE) ([5]; pooled brensocatib (N=49)): 5 (10.2) n (%)
- TEAE leading to death ([5]; pooled brensocatib (N=49)): 0 n (%)
- TEAE leading to discontinuation ([5]; pooled brensocatib (N=49)): 1 (2.0) n (%)
- Renal toxicity assessments ([5]; part A): no signs of acute kidney injury
- participants treated with brensocatib who experienced ≥1 TEAE ([5]; part A): 55.1%
- AESIs (hyperkeratosis, periodontitis/gingivitis, other infections) ([5]; parts A and B): None of these AESIs were evident
- SAEs, severe TEAEs, deaths during the study ([5]; parts A and B): No SAEs, severe TEAEs, or deaths occurred
- tolerability ([5]; single and multiple administration 10, 25, and 40 mg for 28 days, healthy Japanese and White participants): well tolerated
- CYP inhibition (CYP1A2): no effect
- CYP inhibition (CYP2C9): no effect
- IC50 [6]: > 11 µM
- IC50 (CYP3A4/5): > 30 µM
- apparent permeability from apical side to basolateral side (Caco‐2 monolayers): 9.03 × 10^–6 cm/s
- CYP induction (significant inducer or not) (CYP3A4): not a significant
